Source: patent US8536227B2, “Modulators of protein kinase signaling” (Novotyr Therapeutics Ltd., priority 2008, dated 2013)

What was measured:
[1] = system: Human ovary cancer A2780 cells xenografts; test: Inhibition of ovarian A2780 tumor growth in vivo (xenograft); parameters: species or system Nude:Hsd mice; conditions: A2780 xenograft in nude mice
Protocol: Groups were composed of 7-8 mice per group.
The procedure was followed for the A2780 ovary cancer cell in-vivo study with the following modifications:
The Veh group received PBS. The CDDP group received 8 mg/kg CDDP (Cisplatin) twice a week.

[2] = system: IGF1R related cell signaling in human breast cancer MCF7 cells; conditions: FIG. 15; for IGF1-induced tyrosine phosphorylation of IRS1: 50 ng/ml IGF-1 stimulation
Protocol: (§2) Tyrosine autophosphorylation of the β-subunit of IGF1R as well as downstream signaling induced by IGF1R were assayed in human breast cancer MCF7 cells and in melanoma A375 cells. Cells were seeded in 6-well plates (250,000 cells/well) and 24 hours later medium was replaced by serum-free medium (RPMI supplemented with 100 units/ml penicillin and 100 μg/ml streptomycin). Following 20 hours of serum-starvation, medium was replaced with serum-free medium containing various concentrations of the inhibitors in 0.1% DMSO for an additional 4-5 hours. […] Equal amounts of protein per lane were separated by 8% SDS-PAGE and transferred to a nitrocellulose membrane (Sartorius AG). […] Detection was performed with horseradish peroxidase-conjugated secondary antibody using the ECL system. Blots were then stripped of antibodies, blocked with TBST with 5% low fat milk and re-probed with antibodies detecting both the phosphorylated and the non-phosphorylated corresponding proteins e.g. IGF1Rβ, IRS1, PKB, and ERK. Anti-actin antibodies served as control.
(§3) In addition, lysates were prepared from cells exposed to inhibitors at various concentrations for 24 hours in the presence or the absence of FCS without stimulation. Lysate preparation and western blot were performed as described above.

[3] = system: Human melanoma A375 cells xenografts; conditions: A375 xenograft in nude mice, IP 50 mg/kg daily or 100 mg/kg every other day
Protocol: Human melanoma A375 cells (ATCC, 2×10^6 cells per mouse) were injected subcutaneously into the flank of Nude:Hsd mice. Eight days later, when tumors were formed, mice were divided into 3 groups with similar average tumor size of 120 mm^3. […] The Veh group received daily 2% EtOH, 6% Tween-80 in DDW at volume of 10 ml/kg. Groups were composed of 7-8 mice per group. The length (l) and the width (w) of the tumors were measured twice a week, as well as the mouse body weight. The volumes of the tumors were calculated as follows: v=lw^2/2. Graphs present average volumes of the tumors versus days following treatment initiation.
The mice were treated with daily or alternate day IP injections, at the specified doses.

[4] = system: IGF1R related cell signaling in human melanoma A375 cells; conditions: FIGS. 14 and 16; for IGF1-induced tyrosine phosphorylation of IRS1: 50 ng/ml IGF-1 stimulation
Protocol: as §2, §3

A375 cells = test: cells; conditions: Homo sapiens, A-375, 168 h, read-out: CF (colony formation in soft agar) IC50
Protocol: (§1) Suspensions of separated A375 and U138MG cells were plated in 50 μl growth medium containing 0.3% agar on top of a 100 μl layer of growth medium containing 1% agar in 96-well plates. Growth medium (50 μl) supplemented with inhibitors at various concentrations was added on top. Six to seven days after plating, colonies were stained with 0.5% MTT for 4 hours, and dye was then extracted by the addition of 100 μl dissolving buffer, containing 5 gr sodium dodecyl sulfate, 8.75 ml DDW, 12.5 ml dimethyl formamide, 0.5 ml acetic acid and 0.07 ml HCl. Following incubation overnight at 37° C., optical density values were read at 570 nm in ELISA plate reader. The data was analyzed in Microsoft Excel, using the vehicle control as 100% proliferation. The assays were performed in triplicates. The values of IC50 were derived from the dose-dependent growth curves obtained.

U138MG cells = test: cells; conditions: Homo sapiens, U138-MG, 168 h, read-out: CF (colony formation in soft agar) IC50
Protocol: as §1

Row | Structure (SMILES) | inhibition of ovarian tumor growth ([1]; 8 mg/kg twice a week) | IGF1-induced tyrosine phosphorylation of IRS1 [2] | serine phosphorylation of IRS1 (pS636/639-IRS1) and IRS1 level [2] | inhibition of ovarian tumor growth ([1]; IP daily 25 mg/kg in PBS) | inhibition of melanoma tumor growth [3] | IGF1-induced tyrosine phosphorylation of IRS1 [4] | serine phosphorylation of IRS1 (pS636/639-IRS1) and IRS1 level [4] | IC50 (A375 cells) | IC50 (U138MG cells)
1 | [NH2][Pt]([NH2])([Cl])[Cl] [CDDP, Cisplatin, reference compound] | 14% |  |  |  |  |  |  |  | 
2 | Oc1cc(/C=C/C(=S)NCc2cc(O)c(O)c(O)c2Br)cc(Br)c1O [Compound 4] |  | inhibited | induce serine phosphorylation of IRS1, followed by its degradation |  |  |  |  |  | 
3 | Oc1cc(CNC(=S)/C=C/c2ccc(O)c(O)c2Br)cc(O)c1O [Compound 5] |  | inhibited | induce serine phosphorylation of IRS1, followed by its degradation | 45% | 70% | inhibited | induce serine phosphorylation of IRS1, followed by its degradation | 400 nM | 2600 nM
4 | Oc1cc(Br)c(/C=C/C(=S)NCc2cc(O)c(O)c(O)c2)cc1O [Compound 6] |  |  |  |  |  | inhibited | induce serine phosphorylation of IRS1, followed by its degradation |  | 
